Legend:
HCT116 cells = assay: Combination studies with SNS-595, MTT assay, median-effect Combination Index; assay type: cell-based; conditions: combination with SNS-595 at constant ratio, 72 hours, <0.90 synergistic, 0.90-1.10 additive, >1.10 antagonistic
Description: The final DMSO concentration was 1% in the assay plate. The treated cells were incubated for 72 hours at 37° C., 5% CO2 before adding 20 μl/well 3-[4,5-dimethylthiazol-2-yl]-2,5-diphenyltetrazolium bromide (MTT) for 1 hour followed by 100 μl/well N,N-dimethyl formamide/SDS lysis buffer for at least 16 hours. The plates were read for absorbance at a wavelength of 595 nm. The data was worked up using the median-effect method that quantifies the interaction using a Combination Index (calculated using the software for dose effect analysis, Calcusyn V2(Biosoft). A combination is said to be additive if it yields a Combination Index of 0.90-1.10. A combination is said to be synergistic if it yields a Combination Index less than 0.90 and a combination is said to be antagonistic if it yields a Combination Index of more than 1.10. All Combination Index calculations were at a Fa value of 0.5, the point where 50% of the cells were dead. See Table 2.

DNA-PK pathway [1] = assay: Pharmacodynamic study: DNA-PK pathway members in HCT116 xenograft tumors (Western blots); assay type: in vivo, Nu/nu mice; conditions: IV bolus 20 or 40 mg/kg, 1-24 hours post dose, FIG. 3
Description: Nu/nu mice (ca. 25 grams) were injected with HCT116 cells (which were obtained from the ATCC) in the hind flank at 5 million cells with 50% matrigel (Becton-Dickinson). Tumors were allowed to grow to 400 mm^3. Xenograft bearing animals were then given either an IV bolus injection of SNS-595 (20 or 40 mg/kg) in the tail vein or a saline vehicle. At prescribed time points (1, 2, 4, 8, 16, and 24 hours post dose), animals were anesthetized with CO2, blood was taken via terminal cardiac puncture, and animals were sacrificed. Tumors were excised, pulverized using liquid nitrogen-cooled mortar and pestle, and flash-frozen in liquid nitrogen. Tumor lysates were made from pulverized samples by addition of lysis buffer. The protein concentrations of the DNA-PK pathway members were determined by Western blots. Approximately 25 micrograms of protein was loaded per lane on an SDS-PAGE gel. Proteins were separated by gel electrophoresis, blotted onto nitrocellulose membranes, and detected using the following antibodies: H2AX, phosphorylated at […] (Cell Signaling, catalog no. 2577L); p53, phosphorylated at S15 (Cell Signaling, catalog no. 9284S); p53, phosphorylated at S37 (Cell Signaling, catalog no. 9289S); p21 (Cell Signaling, catalog no. 2946); cdc2, phosphorylated at Y15 (Calbiochem, catalog no. 219437); cyclin B (Santa Cruz, catalog no. sc-594 (H-20)); p73, phosphorylated at […] […]

[2] = test system: cells where G2 arrest is abrogated; assay: Cytotoxicity in cells where G2 arrest is abrogated by caffeine; assay type: cell-based; conditions: caffeine inhibits both ATM and ATR
Text: As shown by FIG. 1, ATM, ATR, and DNA-PK are three central DNA sensors/effectors that depending on the level of DNA damage that is detected within an individual cell, direct the cell into one of several outcomes including DNA repair, G2 arrest or apoptosis.

topoisomerase II = assay: Catalytic inhibition of topoisomerase II (decatenation and relaxation of supercoiled DNA); assay type: biochemical; conditions: inhibits decatenation and relaxation of supercoiled DNA, no formation of cleavable complexes
Text: (§1) SNS-595 is a cell cycle inhibitor and arrests cells at the G2 interface. Initially, the activity of SNS-595 was believed due to topoisomerase II inhibition.

non-proliferating cells = assay type: cell-based
Text: (§2) Treatment with SNS-595 results in an increase in the number of double-strand DNA breaks that form during the S phase. This damage impedes the ability of the cell to synthesize DNA and lengthens the time the cell spends in the S phase. […] When the DNA damage is sufficiently severe such that the double-strand breaks cannot be repaired through non-homologous end joining (NHEJ), the cell rapidly enters apoptosis. Some cells are able to reach the G2 phase but are subsequently arrested (mediated by cdc2/cyclin B) because the cells are too damaged to enter into the M phase and also eventually becomes apoptotic.

DNA-PK null cell line = assay: Inhibition of cell growth (MTT) by SNS-595 in DNA-PK null cell line; assay type: cell-based; conditions: DNA-PK null cell line instead of HCT-116 cells
Description: (§3) HCT-116 colon cancer cells were plated at a density of approximately […] with 100 μl/well of RPMI-1640 media (supplemented with 10% fetal bovine serum, 1% antibiotic/antimycotic, and 1.5% sodium bicarbonate) in a 96-well clear tissue-culture treated plate for 24 hours at 37° C., 5% CO2. Some cells were treated with 100 nM wortmannin for 8-16 hours. SNS-595 was then added as a serial dilution, and cells were incubated for 72 hours at 37° C., 5% CO2. MTT (20 μl/well of a 5 mg/ml stock solution) was added for 1 hour, followed by N,N-dimethyl formamide/SDS lysis buffer for at least 16 hours. Absorbance was monitored at 595 nm and data were fit by nonlinear regression to determine the inhibition of cell growth (IC50) by SNS-595 in the absence and presence of wortmannin. […] Similar results were seen when DNA-PK null cell line (approximately a 10 fold sensitization) was used instead of HCT-116 cells.

various cells = assay: Cellular potency (EC50) in various cells; assay type: cell-based
Text: as §1

[3] = test system: HCT-116 colon cancer cells; assay: Inhibition of cell growth (MTT) by SNS-595 in absence and presence of wortmannin; assay type: cell-based; conditions: HCT-116 cells, 100 nM wortmannin for 8-16 hours, 72 hours
Description: as §3

[4] = Pharmacokinetics of SNS-595 in cancer patients; assay type: in vivo, human; conditions: for C0: human, intravenous
Description: SNS-595 was administered to enrolled patients for up to six cycles. A cycle is defined as a three-week period, with SNS-595 administered on the first day of each cycle (day 0), followed by at least 21 days of observation. SNS-595 was administered to cohorts of at least 3 patients and dose escalation occurred by sequential cohort.

[5] = Solubility in acidic compositions; assay type: physicochemical; conditions: acidic compositions (<pH 4)
Description: An illustrative example of a suitable composition comprises: 10 mg SNS-595 per mL of aqueous solution of 4.5% sorbitol that is adjusted to pH 2.5 with methanesulfonic acid. One protocol for making such a solution includes the following for making a 100 mg/10 mL presentation: 100 mg of SNS-595 and 450 mg D-sorbitol are added to distilled water; the volume is brought up to a volume of 10 mL; and the pH of the resulting solution is adjusted to 2.5 with methanesulfonic acid. The resulting composition is also suitable for lyophilization. The lyophilized form is then reconstituted with sterile water to the appropriate concentration prior to use.

DNA-PK pathway [6] = assay: Dose-dependent responses of DNA-PK pathway members in HCT 116 cells (FIG. 2); assay type: cell-based; conditions: H2AX, c-Abl, p53, p73, p21, caspase-9, caspase-3
Text: as §2, with “This” for “Treatment with SNS-595 results in an increase in the number of double-strand DNA breaks that form during the S phase. This”

[7] = test system: stable variant of HCT-116 cells; assay: Sensitivity of a stable SNS-595-resistant variant of HCT-116 cells; assay type: cell-based; conditions: stable variant with induced resistance
Text: Consistent with this mechanism, cells with induced resistance to SNS-595 also have alterations in the DNA-PK pathway. […] Conversely, decreased levels of DNA-PK or its activity (e.g. in the presence of an inhibitor) is associated with an increased sensitivity to SNS-595.

[8] = test system: 2-deoxyglucose treated cells; assay: Activity in cells with topoisomerase II levels modulated by 2-deoxyglucose; assay type: cell-based; conditions: topoisomerase II levels modulated using 2-deoxyglucose
Text: as §1

N.N.O=C([O-])C1(C(=O)[O-])CCC1.[Pt+2] [Carboplatin]
Combination Index @ Fa = 0.5 (HCT116 cells): 0.54

N.N.[Cl][Pt][Cl] [Cisplatin]
Combination Index @ Fa = 0.5 (HCT116 cells): 0.54

CC(=O)O[C@@]12CO[C@@H]1C[C@H](O)[C@@]1(C)C(=O)[C@H](O)C3=C(C)[C@@H](OC(=O)[C@H](O)[C@@H](NC(=O)OC(C)(C)C)c4ccccc4)C[C@@](O)([C@@H](OC(=O)c4ccccc4)[C@H]21)C3(C)C [Docetaxel]
Combination Index @ Fa = 0.5 (HCT116 cells): 2.00

COC1=C2C[C@@H](C)C[C@H](OC)[C@H](O)[C@@H](C)/C=C(\C)[C@H](OC(N)=O)[C@@H](OC)/C=C\C=C(/C)C(=O)NC(=CC1=O)C2=O [Geldanamycin]
Combination Index @ Fa = 0.5 (HCT116 cells): 0.47

Cn1cnc2c(NCc3ccccc3)nc(NCCO)nc21 [Olomucine]
Combination Index @ Fa = 0.5 (HCT116 cells): 1.00

CC[C@H](CO)Nc1nc(NCc2ccccc2)c2ncn(C(C)C)c2n1 [Roscovitine]
Combination Index @ Fa = 0.5 (HCT116 cells): 1.10

CN[C@H]1CN(c2ccc3c(=O)c(C(=O)O)cn(-c4nccs4)c3n2)C[C@@H]1OC [SNS-595, (+)-1,4-dihydro-7-[(3S,4S)-3-methoxy-4-(methylamino)-1-pyrrolidinyl]-4-oxo-1-(2-thiazoyl)-1,8-naphthyridine-3-carboxylic acid]
levels of DNA-PK pathway members in tumors upon treatment (DNA-PK pathway [1]): activated in tumors
difference in EC50 values, caffeine-treated (G2 arrest abrogated) versus untreated cells [2]: essentially no difference in EC50 values
IC50 (topoisomerase II): ~5 µM
lethality to non-proliferating cells (non-proliferating cells): non-lethal to non-proliferating cells
sensitization to SNS-595 (DNA-PK null cell line): ~10 fold
difference in potency, cellular EC50 versus biochemical inhibition of topoisomerase II (various cells): at least a ten-fold difference in increased potency
IC50 lower in the presence of wortmannin than in its absence [3]: 3-6 fold
relation of dose to AUC∞ ([4]; dose escalation by sequential cohort): linear with AUC∞
C0 ([4]; 3 mg/m2, plasma, dose 3 mg/m^2): 153 ng/mL
C0 ([4]; 6 mg/m2, plasma, dose 6 mg/m^2): 377 ng/mL
C0 ([4]; 12 mg/m2, plasma, dose 12 mg/m^2): 2890 ng/mL
C0 ([4]; 24 mg/m2, plasma, dose 24 mg/m^2): 2920 ng/mL
C0 ([4]; 48 mg/m2, plasma, dose 48 mg/m^2): 1980 ng/mL
C0 ([4]; 60 mg/m2, plasma, dose 60 mg/m^2): 4800 ng/mL
AUCINF_obs ([4]; plasma, dose 3 mg/m^2): 1139.55 ng·h/mL
Cl_obs ([4]; plasma, dose 3 mg/m^2): 1.14 mL/min/kg
Cmax ([4]; plasma, dose 3 mg/m^2): 138.80 ng/mL
HL ([4]; plasma, dose 3 mg/m^2): 16.27 h
MRTINF_obs ([4]; plasma, dose 3 mg/m^2): 21.95 h
Vss_obs ([4]; plasma, dose 3 mg/m^2): 1.44 L/kg
Vz_obs ([4]; plasma, dose 3 mg/m^2): 1.55 L/kg
Cl_obs ([4]; plasma, dose 6 mg/m^2): 0.71 mL/min/kg
Cmax ([4]; plasma, dose 6 mg/m^2): 347.00 ng/mL
HL ([4]; plasma, dose 6 mg/m^2): 20.69 h
Vss_obs ([4]; plasma, dose 6 mg/m^2): 1.24 L/kg
Vz_obs ([4]; plasma, dose 6 mg/m^2): 1.28 L/kg
AUCINF_obs ([4]; plasma, dose 12 mg/m^2): 6329.15 ng·h/mL
Cl_obs ([4]; plasma, dose 12 mg/m^2): 0.76 mL/min/kg
Cmax ([4]; plasma, dose 12 mg/m^2): 2246.67 ng/mL
HL ([4]; plasma, dose 12 mg/m^2): 17.81 h
Vss_obs ([4]; plasma, dose 12 mg/m^2): 1.07 L/kg
Vz_obs ([4]; plasma, dose 12 mg/m^2): 1.17 L/kg
AUCINF_obs ([4]; plasma, dose 24 mg/m^2): 12655.32 ng·h/mL
AUClast ([4]; plasma, dose 24 mg/m^2): 11133.03 ng·h/mL
Cl_obs ([4]; plasma, dose 24 mg/m^2): 0.83 mL/min/kg
Cmax ([4]; plasma, dose 24 mg/m^2): 2703.33 ng/mL
HL ([4]; plasma, dose 24 mg/m^2): 16.14 h
Vss_obs ([4]; plasma, dose 24 mg/m^2): 1.06 L/kg
Vz_obs ([4]; plasma, dose 24 mg/m^2): 1.15 L/kg
AUCINF_obs ([4]; plasma, dose 48 mg/m^2): 27347.38 ng·h/mL
Cl_obs ([4]; plasma, dose 48 mg/m^2): 0.99 mL/min/kg
Cmax ([4]; plasma, dose 48 mg/m^2): 2868.00 ng/mL
HL ([4]; plasma, dose 48 mg/m^2): 21.32 h
Vss_obs ([4]; plasma, dose 48 mg/m^2): 1.48 L/kg
Vz_obs ([4]; plasma, dose 48 mg/m^2): 1.57 L/kg
Cl_obs ([4]; plasma, dose 60 mg/m^2): 0.83 mL/min/kg
Cmax ([4]; plasma, dose 60 mg/m^2): 4537.50 ng/mL
HL ([4]; plasma, dose 60 mg/m^2): 17.63 h
Vss_obs ([4]; plasma, dose 60 mg/m^2): 1.08 L/kg
Vz_obs ([4]; plasma, dose 60 mg/m^2): 1.20 L/kg
solubility [5]: increased solubility
activation of DNA-PK mediated repair and apoptotic cellular machinery (DNA-PK pathway [6]): activates, in a dose dependent manner
sensitivity of resistant HCT-116 variant relative to HCT-116 cells [7]: approximately ten fold less sensitive
difference in activity between 2-deoxyglucose treated cells and untreated cells [8]: essentially no difference in activity

COC[C@H]1OC(=O)c2coc3c2[C@@]1(C)C1=C(C3=O)[C@@H]2CCC(=O)[C@@]2(C)C[C@H]1OC(C)=O [Wortmannin]
Combination Index @ Fa = 0.5 (HCT116 cells): 0.42

Source: patent US9980949B2, “SNS-595 and methods of using the same” (Sunesis Pharmaceuticals, Inc., priority 2004, dated 2018)
